In general, IC50 refers to the point on the concentration scale where inhibition reaches its midpoint.

For one test, the target named is T1, human DP (Homo sapiens, UniProt Q13258).
T1 construct: Full-length human DP cDNA was generated by PCR using human genomic DNA as a template; expressed in transfected cells
T1 sequence (Q13258 1-359): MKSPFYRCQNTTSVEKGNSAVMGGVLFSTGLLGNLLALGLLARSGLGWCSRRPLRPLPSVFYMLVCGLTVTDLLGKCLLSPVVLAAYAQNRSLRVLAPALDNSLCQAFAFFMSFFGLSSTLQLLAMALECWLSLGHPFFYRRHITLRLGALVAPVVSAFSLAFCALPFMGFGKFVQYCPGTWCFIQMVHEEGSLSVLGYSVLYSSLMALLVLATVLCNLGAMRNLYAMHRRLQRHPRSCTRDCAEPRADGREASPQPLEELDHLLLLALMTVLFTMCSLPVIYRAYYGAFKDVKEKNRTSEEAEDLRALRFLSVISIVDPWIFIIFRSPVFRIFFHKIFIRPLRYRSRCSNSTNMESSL
Description: Human DP binding assay (3H-PGD2 binding, 293(128) cells). The conditions noted are these: 2 nM 3H-PGD2 and 0 nM unlabeled PGD2, read-out: IC50 observed in DP binding assay. As for the experimental part: Full-length human DP cDNA was generated by PCR using human genomic DNA as a template and subsequently cloned into pcDNA3.1(+) to generate a DP expression plasmid. The plasmid was transfected into 293 cells to generate a line of cells that have stable overexpression of human DP, termed 293(128) cells, essentially as described above for CRTH2. ^3H-PGD2 binding assays were performed using 293(128) cells as described above for CRTH2 except that each assay contained 350,000 cells, and 2 nM ^3H-PGD2 and 0 nM unlabeled PGD2.

Another test has as its target T2, human CRTH2 (Homo sapiens, UniProt Q9Y5Y4).
T2 construct: Full-length human CRTH2 cDNA was generated by polymerase chain reaction (PCR); expressed in transfected cells
T2 sequence (Q9Y5Y4 1-395): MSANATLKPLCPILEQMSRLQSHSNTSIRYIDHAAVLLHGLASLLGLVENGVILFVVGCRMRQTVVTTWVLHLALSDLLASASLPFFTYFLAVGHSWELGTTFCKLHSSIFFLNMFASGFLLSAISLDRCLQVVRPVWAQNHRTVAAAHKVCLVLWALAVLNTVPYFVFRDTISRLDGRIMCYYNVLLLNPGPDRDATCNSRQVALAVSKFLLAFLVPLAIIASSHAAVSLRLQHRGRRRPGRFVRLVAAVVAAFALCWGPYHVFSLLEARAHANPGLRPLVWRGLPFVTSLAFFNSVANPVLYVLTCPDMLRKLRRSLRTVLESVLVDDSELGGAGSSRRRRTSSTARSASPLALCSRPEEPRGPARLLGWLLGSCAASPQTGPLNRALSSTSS
Description: Human CRTH2 binding assay (3H-PGD2 binding, 293(124) cells). As to conditions: 1 nM 3H-PGD2 and 30 nM unlabeled PGD2, read-out: IC50 observed in CRTH2 binding assay. How it is done:
Full-length human CRTH2 cDNA was generated by polymerase chain reaction (PCR) using human genomic DNA as template and subsequently cloned into pcDNA3.1(+) (Invitrogen Corp., Carlsbad, Calif.), generating a CRTH2 expression plasmid pHLT124. The plasmid was transfected into 293 cells, […], using LIPOFECTAMINE™ reagents (Invitrogen Corp., Carlsbad, Calif.). G418 ([…]) was added to the culture 48 h after transfection and cells were maintained under selection for 3 weeks to ensure that all surviving cells stably expressed CRTH2. These cells are labeled as 293(124) hereafter.
^3H-PGD2 binding assay was performed using 293(124) cells. In brief, cells were washed and suspended in RPMI containing 0.5% BSA and 20 mM HEPES. Each assay contained 25,000 cells, appropriate amount of test compound when necessary and a mixture of 1 nM ^3H-PGD2 (Amersham Biosciences, Piscataway, N.J.) and 30 nM of unlabeled PGD2 (Cayman Chemical Co., Ann Arbor, Mich.) in […] final volume. The cell mixture was incubated at room temperature for 2.5 h with shaking and the cells were separated from free ^3H-PGD2 and transferred onto a filter plate using a cell harvester. Radioactivity bound to the cells was measured on a liquid scintillation counter. Nonspecific binding was determined in the presence of […] of unlabeled PGD2.

Turning to `COc1cc(CC(=O)O)ccc1Oc1ccc2[nH]c(C)cc2c1NS(=O)(=O)c1ccc(Cl)cc1Cl` [Example 1, 2-(4-(4-(2,4-Dichlorophenylsulfonamido)-2-methyl-1H-indol-5-yloxy)-3-methoxyphenyl)acetic acid], the IC50 on human DP is under 10 nM; on human CRTH2, 10 to 100 nM.
In the same order, the values of `O=C(O)Cc1ccc(Oc2cc3c(cc2NS(=O)(=O)c2ccc(Cl)cc2)C(=O)NC3=O)c(Cl)c1` [Example 30, 2-(3-Chloro-4-(6-(4-chlorophenylsulfonamido)-1,3-dioxoisoindolin-5-yloxy)phenyl)acetic acid] are 1000 to 15000 nM and 100 to 1000 nM.

(Values after patent publication US7960567B2, “Compounds and methods useful for treating asthma and allergic inflammation” (Amgen Inc., priority 2007, dated 2011).)
